Active and inactive are the calls of the source.
Assays:
[1] = target: T1, Rac GTPase-activating protein 1 (Homo sapiens, UniProt Q9H0H5); assay: blockers of MgcRacGAP-driven Rac1 GTP hydrolysis – biochemical, ADP Hunter fluorescence, primary and confirmatory, confirmation (AID 624330); format: functional
T1 sequence (Q9H0H5 whole entry): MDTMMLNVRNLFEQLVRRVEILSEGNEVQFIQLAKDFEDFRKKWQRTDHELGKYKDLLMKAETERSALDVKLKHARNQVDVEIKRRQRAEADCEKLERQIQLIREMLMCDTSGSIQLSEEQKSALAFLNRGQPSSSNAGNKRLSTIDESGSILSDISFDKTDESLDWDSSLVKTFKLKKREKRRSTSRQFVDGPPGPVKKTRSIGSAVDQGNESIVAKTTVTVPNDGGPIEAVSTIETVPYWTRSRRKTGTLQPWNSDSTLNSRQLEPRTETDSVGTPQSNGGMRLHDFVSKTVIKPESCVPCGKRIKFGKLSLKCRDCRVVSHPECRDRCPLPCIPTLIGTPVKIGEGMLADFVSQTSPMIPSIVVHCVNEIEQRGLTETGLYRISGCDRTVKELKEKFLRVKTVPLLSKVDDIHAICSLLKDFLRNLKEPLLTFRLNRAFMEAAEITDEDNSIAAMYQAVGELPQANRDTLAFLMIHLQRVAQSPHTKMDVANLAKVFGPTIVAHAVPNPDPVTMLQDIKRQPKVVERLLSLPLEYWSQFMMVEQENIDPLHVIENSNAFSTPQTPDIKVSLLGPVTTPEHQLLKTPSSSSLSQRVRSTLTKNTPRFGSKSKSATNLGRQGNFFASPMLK

[2] = viability loss in HeLa cells – cytotoxicity control for MgcRacGAP inhibitor project, dose response (AID 624300); format: functional
Vero = assay: cells; format: functional; details: Chlorocebus sabaeus
[3] = target: T2, High affinity choline transporter 1 (Homo sapiens, UniProt Q9GZV3); assay: human choline transporter blockers, potency – cell-based, 5-point CRC, membrane potential dye, dose response (AID 504840); format: functional
T2 sequence (Q9GZV3 whole entry): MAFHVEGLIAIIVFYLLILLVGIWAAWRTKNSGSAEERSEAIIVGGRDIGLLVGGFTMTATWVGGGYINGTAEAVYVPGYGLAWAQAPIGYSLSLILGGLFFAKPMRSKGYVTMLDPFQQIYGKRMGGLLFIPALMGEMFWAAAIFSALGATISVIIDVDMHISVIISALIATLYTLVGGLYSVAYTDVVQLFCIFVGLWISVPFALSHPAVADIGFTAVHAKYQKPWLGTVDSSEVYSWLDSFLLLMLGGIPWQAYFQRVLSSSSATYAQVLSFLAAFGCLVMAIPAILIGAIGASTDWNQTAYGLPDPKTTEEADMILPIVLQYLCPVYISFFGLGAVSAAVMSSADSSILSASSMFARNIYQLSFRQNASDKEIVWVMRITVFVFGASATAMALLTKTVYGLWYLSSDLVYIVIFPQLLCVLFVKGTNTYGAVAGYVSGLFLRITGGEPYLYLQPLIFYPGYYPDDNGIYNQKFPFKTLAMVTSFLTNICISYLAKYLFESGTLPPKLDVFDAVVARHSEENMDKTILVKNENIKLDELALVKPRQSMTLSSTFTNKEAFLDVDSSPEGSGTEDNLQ

Large T antigen = Large T antigen (Simian virus 40, UniProt P03070); format: functional, Betapolyomavirus macacae;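 note: Confirmatory-stage PubChem screen for compounds that inhibit SV40 T antigen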
[4] = Luminescence Cell-Based Dose Confirmation HTS to Identify Inhibitors of Platelet Dense Granule Release. [Related pubchem assays: 1663 (Primary HTS), 1678 (Summary of Project)]; format: functional
[5] = target: Luciferin 4-monooxygenase (Photinus pyralis, UniProt P08659); assay: inhibition of purified Photinus pyralis luciferase – biochemical, luminescence, dose response (AID 1891)
[6] = intracellular Trypanosoma cruzi inhibitors in host cells – cell-based, plate reader, cherry-pick samples, set 3, dose response (AID 651818); format: functional;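 note: compounds incubated with infected cells for about four days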
Beta-lactamase [7] = target: Beta-lactamase (Salmonella choleraesuis (strain SC-B67), UniProt Q5J463); assay: Epi-absorbance-based counterscreen for selective VIM-2 inhibitors: dose response biochemical high throughput screening assay to identify inhibitors of TEM-1 serine-beta-lactamase.
Beta-lactamase [8] = target: T3, Beta-lactamase (Pseudomonas aeruginosa, UniProt Q79MP6); assay: […] counterscreen for selective VIM-2 inhibitors: dose response biochemical high throughput screening assay to identify inhibitors of IMP-1 metallo-beta-lactamase.
Beta-lactamase [9] = target: T3, Beta-lactamase; assay: inhibition of IMP-1 beta-lactamase activity – biochemical, epi-absorbance, selectivity assay for VIM-2 inhibitor project, dose response (AID 1920)
[10] = target: T4, Small ubiquitin-related modifier 1 (Homo sapiens, UniProt P63165); assay: SUMO1 protein interaction blockers, potency – biochemical, fluorescence polarization, uHTS hits, dose response (AID 624382); format: functional; details: read-out: IC50_Mean
[11] = target: T4, Small ubiquitin-related modifier 1; assay: SUMO1 protein-protein binding blockers, potency – biochemical, FRET, dose response (AID 624383); format: functional; details: read-out: IC50_Mean
[12] = viability of uninfected HEp-2 cells – cell-based, HTS, cytotoxicity control for RSV inhibitor project, dose response (AID 2410); format: functional; details: human respiratory syncytial virus
[13] = target: T5, Methionyl-tRNA synthetase, putative (Trypanosoma brucei brucei, UniProt Q38C91); format: functional, Trypanosoma brucei brucei strain 927/4 GUTat10.1
T5 sequence (Q38C91 whole entry): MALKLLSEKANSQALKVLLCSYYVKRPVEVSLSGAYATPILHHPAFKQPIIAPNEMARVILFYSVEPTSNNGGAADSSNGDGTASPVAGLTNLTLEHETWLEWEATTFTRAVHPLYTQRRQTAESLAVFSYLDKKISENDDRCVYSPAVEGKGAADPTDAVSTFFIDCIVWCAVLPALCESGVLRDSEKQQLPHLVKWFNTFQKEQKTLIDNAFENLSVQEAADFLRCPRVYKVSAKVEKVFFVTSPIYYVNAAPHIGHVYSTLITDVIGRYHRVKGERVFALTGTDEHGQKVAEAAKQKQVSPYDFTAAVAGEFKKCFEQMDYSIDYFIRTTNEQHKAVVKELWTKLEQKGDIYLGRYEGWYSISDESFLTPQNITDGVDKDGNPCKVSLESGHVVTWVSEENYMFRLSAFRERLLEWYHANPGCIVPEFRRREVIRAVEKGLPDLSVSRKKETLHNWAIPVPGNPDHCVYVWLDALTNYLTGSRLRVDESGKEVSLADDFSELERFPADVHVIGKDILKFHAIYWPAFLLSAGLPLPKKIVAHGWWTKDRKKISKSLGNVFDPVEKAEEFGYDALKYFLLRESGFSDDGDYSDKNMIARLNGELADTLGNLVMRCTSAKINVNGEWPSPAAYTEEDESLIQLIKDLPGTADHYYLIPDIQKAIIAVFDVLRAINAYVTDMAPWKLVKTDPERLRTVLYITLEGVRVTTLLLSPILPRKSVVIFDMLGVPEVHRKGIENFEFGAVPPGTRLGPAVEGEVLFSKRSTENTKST

[14] = target: T5, Methionyl-tRNA synthetase, putative; format: functional, Trypanosoma brucei brucei strain 927/4 GUTat10.1; remark: listed apart in the source
[15] = Counterscreen for inhibitors of Trypanosoma brucei methionyl tRNA synthetase (MetRS): Luminescence-based cell-based high throughput dose response assay to identify compounds that are cytotoxic to Jurkat human T lymphocyte cells.; format: functional
[16] = target: T6, Fructose-bisphosphate aldolase (Mycobacterium tuberculosis, UniProt P9WQA3); assay: Fluorescence-based biochemical high throughput dose response assay for inhibitors of the fructose-bisphosphate aldolase (FBA) of M. tuberculosis.; format: functional
T6 sequence (P9WQA3 whole entry): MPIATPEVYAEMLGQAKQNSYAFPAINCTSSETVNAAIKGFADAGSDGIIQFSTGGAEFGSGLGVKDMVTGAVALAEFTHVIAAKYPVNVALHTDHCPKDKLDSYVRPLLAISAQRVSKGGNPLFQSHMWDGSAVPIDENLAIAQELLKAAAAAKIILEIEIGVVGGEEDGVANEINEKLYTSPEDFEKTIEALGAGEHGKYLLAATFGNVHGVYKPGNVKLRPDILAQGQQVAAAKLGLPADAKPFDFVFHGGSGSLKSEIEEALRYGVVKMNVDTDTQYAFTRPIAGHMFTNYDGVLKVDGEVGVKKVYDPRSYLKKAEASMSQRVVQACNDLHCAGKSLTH

Beta-galactosidase = Beta-galactosidase (Escherichia coli, UniProt Q8VNN2); assay: Dose response counterscreen for EBI2 assay utilizing the enzyme, b-galactosidase.; format: functional
[17] = target: T7, Heat shock factor protein 1 (Mus musculus, UniProt P38532); assay: decrease of HSF1-responsive luciferase luminescence – cell-based, NIH3T3, dose retest, confirmation (AID 2382); format: functional;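 note: NIH3T3 fibroblasts with HSF1-driven luciferase reporter stressed by proteasome inhibitor MG132; luminescence from HSF1-driven luciferase expression after 8 hours of MG132 stress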
T7 sequence (P38532 whole entry): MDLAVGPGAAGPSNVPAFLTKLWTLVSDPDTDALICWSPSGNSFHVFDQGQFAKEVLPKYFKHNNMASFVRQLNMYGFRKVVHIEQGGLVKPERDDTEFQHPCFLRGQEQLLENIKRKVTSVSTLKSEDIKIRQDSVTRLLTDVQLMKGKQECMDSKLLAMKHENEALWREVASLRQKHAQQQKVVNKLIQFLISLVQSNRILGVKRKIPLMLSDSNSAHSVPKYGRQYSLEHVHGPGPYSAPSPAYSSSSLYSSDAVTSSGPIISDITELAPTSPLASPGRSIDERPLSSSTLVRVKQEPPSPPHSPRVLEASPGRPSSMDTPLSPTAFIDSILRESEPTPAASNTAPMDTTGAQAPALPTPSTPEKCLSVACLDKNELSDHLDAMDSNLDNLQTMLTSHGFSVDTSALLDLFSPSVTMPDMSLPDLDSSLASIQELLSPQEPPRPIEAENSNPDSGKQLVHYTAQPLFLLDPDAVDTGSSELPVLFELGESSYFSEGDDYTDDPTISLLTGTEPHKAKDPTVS

T3 sequence (Q79MP6 whole entry): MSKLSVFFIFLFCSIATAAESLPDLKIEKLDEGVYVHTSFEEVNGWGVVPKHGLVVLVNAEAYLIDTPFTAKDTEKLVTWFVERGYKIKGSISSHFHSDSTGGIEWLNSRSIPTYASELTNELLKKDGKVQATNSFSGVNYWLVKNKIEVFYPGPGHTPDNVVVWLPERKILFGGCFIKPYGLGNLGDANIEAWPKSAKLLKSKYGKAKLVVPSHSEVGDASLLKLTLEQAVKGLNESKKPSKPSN
T4 sequence (P63165 whole entry): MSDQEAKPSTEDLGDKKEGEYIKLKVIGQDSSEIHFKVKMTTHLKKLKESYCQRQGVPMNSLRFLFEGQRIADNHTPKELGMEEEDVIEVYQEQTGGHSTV
Beta-galactosidase, sequence (Q8VNN2 whole entry): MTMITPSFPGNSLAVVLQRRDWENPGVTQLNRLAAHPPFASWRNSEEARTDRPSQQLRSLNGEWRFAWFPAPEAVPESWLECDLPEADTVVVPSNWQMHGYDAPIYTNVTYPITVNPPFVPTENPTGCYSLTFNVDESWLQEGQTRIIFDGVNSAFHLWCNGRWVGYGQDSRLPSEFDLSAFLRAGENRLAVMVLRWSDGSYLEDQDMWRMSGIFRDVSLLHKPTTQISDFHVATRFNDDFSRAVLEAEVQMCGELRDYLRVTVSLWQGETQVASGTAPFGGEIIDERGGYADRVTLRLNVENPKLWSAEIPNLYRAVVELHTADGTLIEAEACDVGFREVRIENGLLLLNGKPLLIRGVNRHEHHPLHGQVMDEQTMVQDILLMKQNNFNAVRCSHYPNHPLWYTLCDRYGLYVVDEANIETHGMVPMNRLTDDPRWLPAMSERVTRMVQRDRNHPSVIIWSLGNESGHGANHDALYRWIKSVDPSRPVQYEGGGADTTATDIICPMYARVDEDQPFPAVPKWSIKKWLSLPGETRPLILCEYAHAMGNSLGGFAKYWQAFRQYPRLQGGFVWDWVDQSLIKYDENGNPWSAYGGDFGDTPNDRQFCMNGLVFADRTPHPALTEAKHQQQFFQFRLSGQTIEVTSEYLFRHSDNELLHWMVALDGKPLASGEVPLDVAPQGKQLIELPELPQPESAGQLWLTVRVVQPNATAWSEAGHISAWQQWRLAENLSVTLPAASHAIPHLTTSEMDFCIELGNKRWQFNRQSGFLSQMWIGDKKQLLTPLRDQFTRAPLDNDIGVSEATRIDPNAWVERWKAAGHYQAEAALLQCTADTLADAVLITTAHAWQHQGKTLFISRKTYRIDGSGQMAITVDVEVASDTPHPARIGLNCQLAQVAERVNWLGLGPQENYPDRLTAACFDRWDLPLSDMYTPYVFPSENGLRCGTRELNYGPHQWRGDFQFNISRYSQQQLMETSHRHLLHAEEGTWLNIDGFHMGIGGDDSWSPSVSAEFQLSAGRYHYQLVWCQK
Beta-lactamase (Salmonella choleraesuis (strain SC-B67), UniProt Q5J463), sequence (Q5J463 whole entry): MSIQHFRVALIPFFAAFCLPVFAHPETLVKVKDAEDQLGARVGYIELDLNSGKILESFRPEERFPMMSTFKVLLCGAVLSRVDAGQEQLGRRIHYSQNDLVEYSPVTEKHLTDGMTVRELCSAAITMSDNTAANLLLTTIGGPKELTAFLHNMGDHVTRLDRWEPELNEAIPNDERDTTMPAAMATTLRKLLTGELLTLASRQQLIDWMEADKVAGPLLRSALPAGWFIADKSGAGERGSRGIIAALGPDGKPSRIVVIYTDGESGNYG
Large T antigen, sequence (P03070 whole entry): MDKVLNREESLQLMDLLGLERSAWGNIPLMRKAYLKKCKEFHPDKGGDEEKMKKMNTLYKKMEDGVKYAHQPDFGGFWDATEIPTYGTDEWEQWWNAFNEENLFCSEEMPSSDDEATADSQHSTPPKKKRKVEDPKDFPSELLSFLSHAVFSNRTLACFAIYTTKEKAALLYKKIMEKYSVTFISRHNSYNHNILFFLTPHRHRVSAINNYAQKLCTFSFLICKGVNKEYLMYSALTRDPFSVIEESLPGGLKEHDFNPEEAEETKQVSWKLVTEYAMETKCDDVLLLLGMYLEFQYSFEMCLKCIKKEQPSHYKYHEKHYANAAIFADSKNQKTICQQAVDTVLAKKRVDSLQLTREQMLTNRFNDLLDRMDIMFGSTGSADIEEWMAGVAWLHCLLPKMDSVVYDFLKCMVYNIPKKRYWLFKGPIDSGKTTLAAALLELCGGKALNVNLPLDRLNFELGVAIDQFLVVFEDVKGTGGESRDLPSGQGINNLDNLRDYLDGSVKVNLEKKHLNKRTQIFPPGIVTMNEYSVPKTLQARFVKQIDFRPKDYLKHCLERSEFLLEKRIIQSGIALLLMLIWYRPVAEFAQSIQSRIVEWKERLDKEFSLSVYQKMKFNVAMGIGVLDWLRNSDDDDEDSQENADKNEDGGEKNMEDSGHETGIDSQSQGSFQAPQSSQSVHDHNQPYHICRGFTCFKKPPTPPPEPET
Luciferin 4-monooxygenase, sequence (P08659 whole entry): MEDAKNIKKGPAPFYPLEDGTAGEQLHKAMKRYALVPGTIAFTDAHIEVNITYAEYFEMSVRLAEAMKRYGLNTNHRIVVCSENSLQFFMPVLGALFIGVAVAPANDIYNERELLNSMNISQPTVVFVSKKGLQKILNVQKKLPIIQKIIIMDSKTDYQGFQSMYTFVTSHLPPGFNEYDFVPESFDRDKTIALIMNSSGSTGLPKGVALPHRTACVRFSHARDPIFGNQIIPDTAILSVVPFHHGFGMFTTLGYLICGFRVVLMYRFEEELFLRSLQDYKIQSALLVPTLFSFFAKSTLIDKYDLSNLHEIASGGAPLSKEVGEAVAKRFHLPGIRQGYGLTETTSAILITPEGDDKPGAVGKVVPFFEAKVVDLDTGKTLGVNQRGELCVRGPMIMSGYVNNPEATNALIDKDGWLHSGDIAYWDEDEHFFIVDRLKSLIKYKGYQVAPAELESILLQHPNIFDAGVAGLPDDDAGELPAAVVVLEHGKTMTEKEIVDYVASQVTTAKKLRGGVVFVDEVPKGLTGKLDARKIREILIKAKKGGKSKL

CCOc1cc(/C=C2\C(=O)ON=C2c2ccccc2)cc(Br)c1O
IC50 [1]: 61.2 µM (active) | CC50 [2]: 100 µM (active) | CC50 (Vero): 17.8 µM (active)

O=C1ON=C(c2ccccc2)/C1=C/c1ccc(O)c(O)c1
IC50 [1]: 60 µM (active) | CC50 [2]: 73.7 µM (active) | IC50 [3]: 4.37 µM (active) | IC50 (Large T antigen): 5.22 µM (active)

O=C(Nc1ccccc1C(=O)N/N=C/c1ccc(O)cc1)c1ccccc1
EC50 [4]: 3.65 µM (active) | IC50 [1]: 220 µM (active) | CC50 [2]: 39.5 µM (active) | EC50 [5]: 0.184 µM (active)

C[C@H](CO)N1C[C@H](C)[C@@H](CN(C)CC2CC2)Oc2c(NC(=O)Nc3ccc4c(c3)OCO4)cccc2C1=O
AC50 [6]: 20 µM (inactive)

O=C(CSc1nnc(NC(=O)c2cccc(F)c2)s1)NCc1ccco1
IC50 (Beta-lactamase [7]): > 59.6 µM (inactive) | IC50 (Beta-lactamase [8]): > 59.6 µM (inactive) | IC50 (Beta-lactamase [9]): > 59.6 µM (inactive)

O=C(O)C1Sc2[nH]c(=O)sc2C2c3cc(Cl)ccc3OC(=O)C12 (centres undefined)
IC50 (Beta-lactamase [7]): > 59.6 µM (inactive) | IC50 (Beta-lactamase [8]): > 59.6 µM (inactive) | IC50 (Beta-lactamase [9]): > 59.6 µM (inactive)

CCCCCCC(=O)Nc1nc(C)c(-c2csc(Nc3cccc(OC)c3)n2)s1
IC50 [10]: > 66.6 µM (inactive) | IC50 [11]: 12.9 µM (active) | CC50 [12]: 18.4 µM (active)

Clc1ccc2nc(C3CCN(Cc4nnnn4C4CCCCC4)CC3)[nH]c2c1
IC50 [13]: 7.33 µM (active) | IC50 [14]: 2.91 µM (active)

C[C@H](O)[C@@H]1C(=O)N2CCc3c([nH]c4ccccc34)[C@@H]2C[C@@H]1N(C)Cc1ccc(Cl)cc1
IC50 [13]: 1.49 µM (active) | IC50 [14]: 0.974 µM (active) | IC50 [15]: 57.9 µM (inactive)

CCc1cc(=O)oc2c(C)c(OCC(=O)N3CCC[C@@H]3C(=O)O)ccc12
IC50 (Beta-lactamase [7]): > 59.6 µM (inactive) | IC50 (Beta-lactamase [8]): > 59.6 µM (inactive) | IC50 (Beta-lactamase [9]): > 59.6 µM (inactive) | IC50 [16]: 1.65 µM (active)

CCOc1ccc(NC(S)=Nc2ccc(OC(F)(F)F)cc2)cc1
IC50 (Beta-galactosidase): > 80 µM (inactive) | EC50 [17]: > 195 µM (not active)

C[C@H]1CN([C@@H](C)CO)C(=O)c2cccc(NC(=O)c3ccncc3)c2O[C@@H]1CN(C)CC1CCCCC1
AC50 [6]: 0.365 µM (active)

O=C(c1cc2cc(Cl)ccc2[nH]1)N1CCN(c2ccc(F)cc2)CC1
IC50 (Beta-galactosidase): > 80 µM (inactive)

COc1ccc(C(=O)Nc2ccc(C(=O)Nc3nccs3)cc2)cc1[N+](=O)[O-]
IC50 [10]: > 66.6 µM (inactive) | IC50 [11]: 9.87 µM (active)

Cc1ccc(S(=O)(=O)N(C)C[C@H]2Oc3c(NC(=O)c4ccc(-c5nccs5)cc4)cccc3C(=O)N([C@H](C)CO)C[C@@H]2C)cc1
AC50 [6]: 8.72 µM (active)

COc1ccc(N2CCN(C(=O)c3cc(=O)c4cc(Cl)ccc4o3)CC2)cc1
IC50 (Beta-galactosidase): > 80 µM (inactive)

Clc1ccc2[nH]c(C3CCN(Cc4nnnn4C4CCCCC4)CC3)nc2c1
IC50 [15]: 14.5 µM (inactive)
